Test results from patent publication US9671412B2, “Beclin 1 phosphorylation” (Board of Regents, The University of Texas System, priority 2012, dated 2017).
“Also recorded” adds a separate entry of the source.

Assays:
GST-Akt1 = target: T1, GST-Akt1 (Homo sapiens, UniProt P31749); test: In vitro phosphorylation of Beclin 1 S295 by GST-Akt1; type: biochemical; settings: in vitro kinase reaction
T1 construct: GST
From the text: (§1) We examined whether autophagy execution proteins could be targets of Akt. We focused on Beclin 1 because of its role in autophagy and tumor suppression (4).

[1] = tested on: MCF7 human breast carcinoma cells; test: Basal autophagy (GFP-LC3) in transfected MCF7 cells; type: cell-based; settings: lesser extent with Beclin 1 AA than with wild-type Beclin 1
From the text: We transfected MCF7 human breast carcinoma cells [which express low amounts of endogenous Beclin 1 (14)] with GFP-LC3 and wild-type Beclin 1 or Beclin 1 S295A or AA mutants. […] Thus, Akt inhibits basal autophagy both through Beclin 1 phosphorylation-dependent and independent mechanisms.

[2] = tested on: Beclin 1 S295 / S234 phosphorylation; test: Phosphorylation of endogenous Beclin 1 S295 and S234 in HeLa cells expressing myr-Akt1; type: cell-based
From the text: as §1

mTOR = test: Phospho-4E-BP1 (mTOR phosphorylation target) in HeLa cells; type: cell-based; settings: including those expressing myr-Akt1
From the text: We investigated whether Akt inhibits autophagy by directly regulating the core autophagy machinery independently of mTOR. Expression of constitutively active myristoylated (5) and tagged Akt1 (Flag-tagged myr-Akt) in HeLa cells inhibited autophagy during growth in normal medium, in response to serum and amino acid starvation (a physiological inducer of autophagy), in response to treatment with an ATP-competitive inhibitor of mTOR, Torin1 (6), and in response to both starvation and Torin1 treatment. In all conditions, cells expressing myr-Akt1 had decreased numbers of puncta upon transfection with a fusion protein of green fluorescent protein with LC3 (GFP-LC3), a fluorescent marker of autophagosomes; increased amounts of p62 (a substrate that is degraded by autophagy); and increased amounts of the cytosolic non-lipidated form of LC3, LC3-I, and of total LC3 (7). Amounts of phospho-4E-BP1, a phosphorylation target of mTOR, were decreased in Torin1-treated cells, including those expressing myr-Akt1.

HeLa cells = test: Autophagy induction in HeLa cells transfected with empty vector or WT EGFR; type: cell-based
From the text: We investigated the effects of active EGFR mutants that constitutively bind Beclin 1 on autophagy. […] In cells transfected with the active EGFR mutants, L858R or 4746-750, starvation and Torin1 induced lower levels of autophagy. […] Thus, active EGFR mutants suppress autophagy in a manner that is partially independent of mTOR.

[3] = tested on: EGFR Δ746-750 (HCC827 cells)
From the text: (§2) We investigated whether this mechanism underlies EGFR regulation of autophagy in NSCLC cells with activating mutations in EGFR. We used two NSCLC lines: HCC827 cells have the Δ746-750 EGFR activating mutation and are TKI-sensitive, and H1975 cells have the L858R EGFR activating mutation and are TKI-resistant due to a T790M mutation.

H1975 cells = test: Autophagy (GFP-LC3 puncta, LC3-II, p62) in H1975 NSCLC cells; type: cell-based, human
From the text: (§3) To evaluate whether EGFR activation inhibits autophagy, we used a human non-small cell lung carcinoma (NSCLC) cell line, A549, that express wild-type (WT) EGFR (VanMeter et al., 2008). We measured autophagy by examining the subcellular localization of a green fluorescent autophagy reporter protein, GFP-LC3, and by measuring levels of LC3-II, the autophagosome-associated lipidated form of LC3, and p62, an autophagic substrate (Mizushima et al., 2010).
We investigated whether this mechanism underlies EGFR regulation of autophagy in NSCLC cells with activating mutations in EGFR. We used two NSCLC lines: HCC827 cells have the Δ746-750 EGFR activating mutation and are TKI-sensitive, and H1975 cells have the L858R EGFR activating mutation and are TKI-resistant due to a T790M mutation. First, we evaluated if TKI treatment induces autophagy; […]. Thus, TKI therapy disrupts the EGFR/Beclin 1 complex and induces autophagy in TKI-sensitive but not TKI-resistant cells.

[4] = tested on: EGFR L858R/T790M (H1975 cells); test: EGFR signalling, Beclin 1 interactome and Beclin 1 tyrosine phosphorylation in H1975 cells; type: cell-based, human
From the text: as §2

HCC827 cells = test: Autophagy (GFP-LC3 puncta, LC3-II, p62) in HCC827 NSCLC cells; type: cell-based, human
From the text: as §2

HCC827 xenografts = test: HCC827 tumor xenografts under TKI therapy; type: in vivo; settings: control mice without induction or with induced WT Beclin 1
From the text: as §2

[5] = tested on: myr-Akt1-expressing Rat2 cell tumors; test: Tumors of myr-Akt1-expressing Rat2 cells in NOD SCID mice; type: in vivo; settings: co-expressed with myr-Akt1 in Rat2 cells
From the text: To examine the role of Akt-mediated Beclin 1 phosphorylation in Akt-driven tumorigenesis, we transduced Rat2 fibroblasts with myr-Akt1 (which transforms rat fibroblasts (15)) and either wild-type Beclin 1 or Beclin 1 phosphorylation site mutants. Myr-Akt1 suppressed autophagy in Rat2 fibroblasts, reduced co-immunoprecipitation of Class III PI3K Vps34 with Beclin 1, and decreased Beclin 1-associated lipid kinase activity. […] Expression of myr-Akt1 had minimal effects on the interaction of Beclin 1 AA and Vps34 or on the amounts of Beclin 1 AA-associated Vps34 activity. Thus, myr-Akt1 suppresses Beclin 1-associated Vps34 activity and autophagy in a manner that is partially reversed by a Beclin 1 mutant resistant to Akt-mediated phosphorylation.
All myr-Akt1-expressing Rat2 cells formed tumors in immunodeficient NOD SCID® mice, but tumor growth rate and tumor mass upon necropsy were less for cells expressing Beclin 1 AA than for cells expressing wild-type Beclin 1 or myr-Akt1 alone. Tumors expressing myr-Akt1 alone had numerous cells displaying p62 immunoreactivity (indicating autophagy suppression) whereas very few p62 immunoreactive cells were detected in tumors from cells expressing both myr-Akt1 and Beclin 1 AA. […] Tumors expressing active Akt alone or with Beclin 1 had higher mean mitotic counts (n=8.39; n=8.37, respectively) than tumors expressing myr-Akt1 and Beclin 1 AA (n=3.67) (P<0.0001). They also had increased Ki-67 labeling, and decreased TUNEL staining. Thus, the expression of a mutant of Beclin 1 that cannot be phosphorylated by Akt increases tumor cell autophagy, decreases tumor growth rate and size, decreases tumor cellular proliferation, and increases tumor cell death.

[6] = tested on: A549 cells (wild-type EGFR); test: Autophagy in serum-starved A549 cells; type: cell-based, human; settings: addition for 30 min
From the text: as §3

T1 sequence (P31749 whole entry): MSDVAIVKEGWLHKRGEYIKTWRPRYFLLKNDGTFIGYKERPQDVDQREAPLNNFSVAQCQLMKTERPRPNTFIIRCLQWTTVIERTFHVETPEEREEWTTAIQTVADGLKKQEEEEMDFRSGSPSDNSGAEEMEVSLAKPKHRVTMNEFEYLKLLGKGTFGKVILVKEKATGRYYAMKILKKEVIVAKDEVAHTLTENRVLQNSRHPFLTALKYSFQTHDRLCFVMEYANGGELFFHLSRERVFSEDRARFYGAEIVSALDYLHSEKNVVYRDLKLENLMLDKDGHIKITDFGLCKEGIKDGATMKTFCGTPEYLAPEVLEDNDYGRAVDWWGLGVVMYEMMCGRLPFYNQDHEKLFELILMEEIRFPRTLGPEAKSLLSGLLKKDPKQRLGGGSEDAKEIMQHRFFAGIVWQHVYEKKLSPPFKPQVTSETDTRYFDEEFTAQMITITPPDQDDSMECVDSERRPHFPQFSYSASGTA

CCN(CC)CCCCN1c2ccccc2Oc2ccc(Cl)cc21 [Akt inhibitor X]
GST-Akt1 phosphorylation of Beclin 1 S295 in vitro (GST-Akt1): partially blocked

NC1(c2ccc(-c3nc4ccn5c(=O)[nH]nc5c4cc3-c3ccccc3)cc2)CCC1 [MK-2206]
GST-Akt1 phosphorylation of Beclin 1 S295 in vitro (GST-Akt1): partially blocked
basal autophagy [1]: increased basal autophagy

CCC(=O)N1CCN(c2ccc(-n3c(=O)ccc4cnc5ccc(-c6cnc7ccccc7c6)cc5c43)cc2C(F)(F)F)CC1 [Torin1]
myr-Akt1-driven phosphorylation of endogenous Beclin 1 S295 and S234 [2]: not reversed
amounts of phospho-4E-BP1 (mTOR): decreased
autophagy (HeLa cells): induced autophagy

C#Cc1cccc(Nc2ncnc3cc(OCCOC)c(OCCOC)cc23)c1 [erlotinib]
Beclin 1/EGFR interaction [3]: blocked; also recorded: disruption of EGFR/Beclin 1 binding
Beclin 1 tyrosine phosphorylation [3]: decreased
EGFR phosphorylation [3]: EGFR dephosphorylation
endogenous Beclin 1 Y233 phosphorylation ([3]; phosphospecific antibody): blocked
LC3-II conversion and p62 degradation (H1975 cells; H1975 cells): not
GFP-LC3 puncta (H1975 cells; H1975 cells stably transfected with GFP-LC3): not
Beclin 1/EGFR interaction [4]: not
endogenous Beclin 1 Y233 phosphorylation ([4]; phosphospecific antibody): not
LC3-II conversion and p62 degradation (HCC827 cells; HCC827 cells): demonstrated LC3-II conversion and p62 degradation
GFP-LC3 puncta (HCC827 cells; HCC827 cells stably transfected with GFP-LC3): increased GFP-LC3 puncta in a dose-dependent manner
time to complete regression of all tumor xenografts (HCC827 xenografts): ≤ 14 days

Beclin 1 AA: Beclin 1 double mutation S234A/S295A, cannot be phosphorylated by Akt; expressed in cells
mean mitotic counts of tumors [5]: 3.67
tumors displaying degenerative features with numerous pyknotic nuclei [5]: 60%

Beclin 1: wild-type human Beclin 1, essential autophagy and tumor suppressor protein; expressed in cells
mean mitotic counts of tumors [5]: 8.37

epidermal growth factor [EGF, growth factor ligand that triggers EGFR signaling]
autophagy induced by serum depletion [6]: partially reversed autophagy induction
